These results are taken from patent publication US12611404B2, “Aza-aryl 1H-pyrazol-1-yl benzene sulfonamides” (ChemoCentryx, Inc., priority 2012, dated 2026).

One experiment concerns the target T1, CCR(9) (Homo sapiens, UniProt P51686).
T1 construct: CCR(9)-expressing cells such as T cell line MOLT-4 cells; host or cells: MOLT-4 cells
T1 sequence (P51686 1-369): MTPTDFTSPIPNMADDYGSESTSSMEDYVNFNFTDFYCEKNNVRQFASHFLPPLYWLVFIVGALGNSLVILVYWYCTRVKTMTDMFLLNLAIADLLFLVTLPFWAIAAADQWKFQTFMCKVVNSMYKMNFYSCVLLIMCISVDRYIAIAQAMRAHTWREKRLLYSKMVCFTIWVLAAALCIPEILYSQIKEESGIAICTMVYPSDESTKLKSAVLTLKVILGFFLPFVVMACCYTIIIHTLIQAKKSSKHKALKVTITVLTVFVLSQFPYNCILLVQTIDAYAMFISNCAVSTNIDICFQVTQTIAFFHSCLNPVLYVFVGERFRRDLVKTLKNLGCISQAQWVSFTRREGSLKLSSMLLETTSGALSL
Description: serum chemotaxis (migration) assay, MOLT-4 cells in human serum, TECK. The experiment is classed as cell-based. The note with it: read-out: A2. The procedure: In vitro cell chemotaxis assays can be performed (but are not limited to this format) using the 96-well microchamber (called ChemoTX™). The ChemoTX™ system is well known to those skilled in the art as a type of chemotactic/cell migration instrument. In this assay, CCR(9)-expressing cells (such as MOLT-4) are first incubated with a compound of interest, such as a possible CCR(9) antagonist at increasing concentrations. Typically, fifty thousand cells per well are used, but the amount can range from 10^3-10^6 cells per well. The chemokine ligand (for example, CCR(9) ligand TECK, typically at 50 nM (but can range from 5-100 nM)), is placed at the lower chamber and the migration apparatus is assembled. Twenty microliters of test compound-treated cells are then placed onto the membrane. Migration is allowed to take place at 37° C. for a period of time, typically 2.5 hours for CCR(9). At the end of the incubation, the number of cells that migrated across the membrane into the lower chamber is then quantified. The efficacy of a compound as an inhibitor of chemokine-mediated cell migration can be calculated as an IC50 (the concentration needed to reduce cell migration by 50%) or IC90 (for 90% inhibition).
MOLT-4 cells were obtained from the American Type Culture Collection (Manassas, VA) and cultured in RPMI tissue culture medium supplemented with 10% fetal calf serum (FCS) in a humidified 5% CO2 incubator at 37° C. Recombinant human chemokine proteins TECK was obtained from R&D Systems (Minneapolis, MN). ChemoTX® chemotaxis microchambers were purchased from Neuro Probe (Gaithersburg, MD). CyQUANT® cell proliferation kits were purchased from Molecular Probes (Eugene, Oregon). Calcium indicator dye Fluo-4 AM was purchased from Molecular Devices (Mountain View, CA).
A serum chemotaxis assay was used to determine the efficacy of potential receptor antagonists at blocking the migration mediated through chemokine receptors, such as CCR(9). This assay was performed using the ChemoTX® microchamber system with a 5-μm pore-sized polycarbonate membrane. MOLT-4 cells were collected by centrifugation at 400×g at room temperature, then suspended at 50 million/ml in human serum, containing 50 mM HEPES (final pH of 7.2). The compound being tested or an equivalent volume of its solvent (DMSO) was then added to the cell/serum mixture at a final DMSO concentration of 0.125% (v/v), and this mixture was then incubated together at 37° C. for one hour. Separately, recombinant human TECK was diluted with chemotaxis buffer (HBSS+0.1% BSA), generally spanning a range from 0.1 nM to 500 nM, after which 29 μl of diluted chemokine was placed in the lower wells of the ChemoTX® plate. The 5-μm (pore size) polycarbonate membrane was placed onto the plate, and 20 μL of the cell/compound mixture was transferred onto each well of the membrane. The plates were incubated at 37° C. for 90 minutes, after which the polycarbonate membranes were removed and 5 μl of the DNA-intercalating agent CyQUANT (Invitrogen, Carlsbad, CA) was added to the lower wells. The amount of fluorescence, corresponding to the number of migrated cells, was measured using a Spectrafluor Plus plate reader (TECAN, San Jose, CA).
The A2 values were calculated from the following equation, comparing the efficacy of the test compound with that of the DMSO-only control at equi-active chemokine levels: Log(A2)=log[drug(M)]−log [(A′/A)−1]
where A reflects the potency of the agonist in the absence of antagonist and A′ reflects the potency of the agonist in the presence of antagonist at a given concentration of drug ([drug(M)]).
With `Cc1cc(NS(=O)(=O)c2cc(F)c(C(C)(C)C)c(F)c2)n(-c2cccc3ncccc23)n1`, the IC50 was below 0.5 µM.

Turning to `CC(C)c1ccc(S(=O)(=O)Nc2cc(C(F)(F)F)nn2-c2cccc3cnccc23)cc1`, the IC50 was in the range of 0.501 to 2.5 µM. The same measure, in the same setting: as for `Cc1cc(NS(=O)(=O)c2ccc(C(C)(C)C)cc2F)n(-c2cccc3ncccc23)n1`, the figure is 0.501 to 2.5 µM.

Another experiment deals with T1, CCR(9). The experiment can be described thus: calcium mobilization assay (FLIPR, MOLT-4 cells, hTECK). It counts as cell-based. The note with it: read-out: CCR(9) Ca^2+. The procedure: In calcium signaling assays used to determine the ability of a compound to interfere with binding between a chemokine receptor and a known chemokine ligand, chemokine receptor-expressing cells (CCR(9)-expressing cells such as T cell line MOLT-4 cells) are first incubated with a compound of interest, such as a potential chemokine antagonist, at increasing concentrations. The cell number can be from 10^5 to 5×10^6 cells per well in a 96-well microtiter plate. The concentration of the compound being tested may range from 0 to 100 μM. After a period of incubation (which can range from 5 to 60 minutes), the treated cells are placed in a Fluorometric Imaging Plate Reader (FLIPR®) (available from Molecular Devices Corp., Sunnyvale, CA) according to the manufacturer's instruction. The FLIPR® system is well known to those skilled in the art as a standard method of performing assays. The cells are then stimulated with an appropriate amount of the chemokine ligand (TECK for CCR(9)) at 5-100 nM final concentration, and the signal of intracellular calcium increase (also called calcium flux) is recorded. The efficacy of a compound as an inhibitor of binding between the […] and the ligand can be calculated as an IC50 (the concentration needed to cause 50% inhibition in signaling) or IC90 (at 90% inhibition). […]
A cytoplasmic calcium mobilization assay was used to determine the efficacy of potential receptor antagonists at blocking the signals mediated through chemokine receptors, such as CCR(9). This assay was routinely performed using the Fluorescent Imaging Plate Reader (FLIPR, Molecular Devices). […] The chemokine agonist (i.e., hTECK), prepared in HBSS at a 5× concentration of the previously determined EC^50 concentration, was added to each well and resulting changes in the fluorescent intensity, indicative of chemokine receptor-mediated signaling, were recorded on the FLIPR.
Background: Calcium flux is commonly read through the fluorescence of an indicator in the cells.
For `Cc1cc(NS(=O)(=O)c2ccc(C(C)(C)C)cc2Cl)n(-c2cccc3ncccc23)n1`, the IC50 was below 0.1 µM. Still for that read-out and setting: as for `CCc1cc(NS(=O)(=O)c2ccc(C(C)(C)C)cc2)n(-c2cccc3ncccc23)n1`, the figure is below 0.1 µM. The same measure, in the same setting: to `Cc1cc(NS(=O)(=O)c2ccc(C(C)(C)C)cc2)n(-c2ccc3cccnc3c2)n1` belongs below 0.1 µM.
